Reference: ChEMBL document CHEMBL1201862, “PubChem BioAssay data set” (2004)
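Following 48 hours of exposure in 96-well plates, responses at five concentrations were used to interpolate endpoints linearly. Abbreviation: GI50, concentration required for 50% inhibition of growth.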 Calls of active or inactive are those of the source. No stated cut-off is given here; in the data, active = GI50 up to about 1.1 µM and inactive = higher.

How the values were obtained:
Experiment in all cases: NCI tumour cell line growth inhibition, 48 h
SNB-75 = test system: SNB-75
NCI-H226 = test system: NCI-H226
HCC 2998 = test system: HCC 2998
SF-539 = test system: SF-539
NCI-H460 = test system: NCI-H460
ACHN = test system: ACHN
CAKI-1 = test system: CAKI-1
M19-MEL = test system: M19-MEL
Malme-3M = test system: Malme-3M
A498 = test system: A498
SK-MEL-28 = test system: SK-MEL-28
SK-OV-3 = test system: SK-OV-3
786-0 = test system: 786-0
OVCAR-8 = test system: OVCAR-8
MOLT-4 = test system: MOLT-4
DMS-114 = test system: DMS-114

Measured: GI50

COc1nc2c(nc(N)n2C2OC(CO)C(O)C(O)C2O)c(=O)[nH]1 (stereo unspecified)
inactive: SNB-75 > 100 µM | NCI-H226 > 100 µM | HCC 2998 > 100 µM | SF-539 > 100 µM | NCI-H460 > 100 µM | ACHN > 100 µM | CAKI-1 > 100 µM | M19-MEL > 100 µM | Malme-3M > 100 µM | A498 > 100 µM | SK-MEL-28 > 100 µM | SK-OV-3 > 100 µM | 786-0 > 100 µM | OVCAR-8 > 100 µM

CC(=O)NNc1nc(C)c(C(=O)/C=C/c2ccc(NC(C)=O)cc2)s1
inactive: SNB-75 > 100 µM | HCC 2998 > 100 µM | SF-539 > 100 µM | NCI-H460 > 100 µM | ACHN > 100 µM | CAKI-1 > 100 µM | M19-MEL > 100 µM | Malme-3M > 100 µM | A498 > 100 µM | SK-MEL-28 > 100 µM | SK-OV-3 > 100 µM | 786-0 > 100 µM | MOLT-4 > 100 µM | OVCAR-8 > 100 µM

CCOc1ccccc1NC(=O)CC(C(=O)OC)C(=O)C(=O)OC (stereo unspecified)
inactive: NCI-H226 > 100 µM | HCC 2998 > 100 µM | SF-539 > 100 µM | NCI-H460 > 100 µM | ACHN > 100 µM | CAKI-1 > 100 µM | M19-MEL > 100 µM | Malme-3M > 100 µM | A498 > 100 µM | SK-MEL-28 > 100 µM | SK-OV-3 > 100 µM | 786-0 > 100 µM | DMS-114 > 100 µM | MOLT-4 > 100 µM | OVCAR-8 > 100 µM

CCCCCCCCCCCCOC(=S)NC
inactive: SNB-75 29.9 µM | NCI-H226 4.25 µM | HCC 2998 17.5 µM | SF-539 18.2 µM | NCI-H460 18.5 µM | ACHN 20 µM | Malme-3M 21.6 µM | A498 18.1 µM | SK-MEL-28 20 µM | SK-OV-3 27 µM | 786-0 19 µM | DMS-114 20.8 µM | MOLT-4 13.1 µM | OVCAR-8 18.6 µM

C/C(CC(=O)NCCc1ccccc1)=N\NC(=O)C[n+]1ccccc1
inactive: SNB-75 > 100 µM | NCI-H226 > 100 µM | HCC 2998 > 100 µM | SF-539 > 100 µM | NCI-H460 > 100 µM | ACHN > 100 µM | M19-MEL > 100 µM | Malme-3M > 100 µM | A498 > 100 µM | SK-MEL-28 > 100 µM | SK-OV-3 > 100 µM | 786-0 > 100 µM | DMS-114 > 100 µM | MOLT-4 > 100 µM | OVCAR-8 > 100 µM

[O-][S+]1c2ccccc2NC(c2ccc3ccccc3c2)CC1c1ccccc1 (stereo unspecified)
inactive: SNB-75 24.8 µM | NCI-H226 20.6 µM | HCC 2998 17.8 µM | SF-539 20 µM | NCI-H460 19.5 µM | ACHN 20.8 µM | CAKI-1 26.8 µM | M19-MEL 20.9 µM | Malme-3M 61.5 µM | SK-MEL-28 35.2 µM | SK-OV-3 99.1 µM | 786-0 17.3 µM | MOLT-4 24 µM | OVCAR-8 21.2 µM

CC(=O)Nc1ccc(/C=c2\sc3nnc(CCC(=O)Nc4ccccc4Cl)n3c2=O)cc1
inactive: NCI-H226 23.4 µM | HCC 2998 > 10 µM | SF-539 23.5 µM | NCI-H460 > 10 µM | ACHN > 100 µM | CAKI-1 > 100 µM | M19-MEL 37.4 µM | Malme-3M 38.8 µM | SK-MEL-28 23 µM | SK-OV-3 > 100 µM | 786-0 21.8 µM | DMS-114 55.5 µM | MOLT-4 19.4 µM | OVCAR-8 > 10 µM

C[Si](C)(C)CC(N)=O
inactive: SNB-75 > 100 µM | NCI-H226 > 100 µM | HCC 2998 > 100 µM | NCI-H460 > 100 µM | ACHN > 100 µM | CAKI-1 > 100 µM | M19-MEL > 100 µM | Malme-3M > 100 µM | SK-MEL-28 > 100 µM | SK-OV-3 > 100 µM | 786-0 > 100 µM | DMS-114 > 100 µM | MOLT-4 > 100 µM | OVCAR-8 > 100 µM

O=c1cc(-c2ccccc2)[nH]c2c(Cl)cccc12
inactive: SNB-75 13.8 µM | NCI-H226 9.55 µM | HCC 2998 14.8 µM | SF-539 15.3 µM | NCI-H460 8.2 µM | ACHN 78 µM | M19-MEL 9.18 µM | Malme-3M 64.9 µM | A498 14.2 µM | SK-MEL-28 > 100 µM | 786-0 26.3 µM | DMS-114 7.66 µM | MOLT-4 8.34 µM | OVCAR-8 16.6 µM

C=CCOCCCC(=O)C(=[N+]=[N-])C(=O)OC
inactive: SNB-75 > 100 µM | NCI-H226 > 100 µM | HCC 2998 > 100 µM | SF-539 > 100 µM | NCI-H460 > 100 µM | ACHN > 100 µM | CAKI-1 > 100 µM | M19-MEL > 100 µM | Malme-3M > 100 µM | A498 > 100 µM | SK-MEL-28 > 100 µM | SK-OV-3 > 100 µM | 786-0 > 100 µM | MOLT-4 > 100 µM | OVCAR-8 > 100 µM

CC1CC2(S(=O)(=O)c3ccccc3)ON1CC2S(=O)(=O)c1ccccc1 (stereo unspecified)
inactive: SNB-75 > 100 µM | NCI-H226 > 100 µM | HCC 2998 > 100 µM | SF-539 42.3 µM | NCI-H460 > 100 µM | ACHN > 100 µM | CAKI-1 > 100 µM | M19-MEL > 100 µM | Malme-3M > 100 µM | SK-MEL-28 > 100 µM | SK-OV-3 > 100 µM | 786-0 > 100 µM | DMS-114 > 100 µM | MOLT-4 > 100 µM | OVCAR-8 > 100 µM

O=C(CC/C(CC(=O)c1ccc(Br)cc1)=N\O)Nc1ccc(Cl)c(Cl)c1
inactive: SNB-75 23.8 µM | NCI-H226 > 100 µM | HCC 2998 > 100 µM | SF-539 > 100 µM | NCI-H460 > 100 µM | ACHN 65 µM | M19-MEL 64.7 µM | Malme-3M > 100 µM | A498 36.3 µM | SK-MEL-28 > 100 µM | SK-OV-3 > 100 µM | 786-0 > 100 µM | DMS-114 27.9 µM | MOLT-4 52.7 µM | OVCAR-8 > 100 µM

N#CC(C(=O)CCC(=O)Nc1ccc(Cl)cc1)c1ccccc1Cl (stereo unspecified)
inactive: SNB-75 45.9 µM | NCI-H226 > 100 µM | SF-539 > 100 µM | NCI-H460 > 100 µM | ACHN 54.8 µM | CAKI-1 89.3 µM | M19-MEL > 100 µM | Malme-3M > 100 µM | A498 > 100 µM | SK-MEL-28 > 100 µM | SK-OV-3 > 100 µM | 786-0 > 100 µM | DMS-114 > 100 µM | MOLT-4 > 100 µM | OVCAR-8 > 100 µM

Cc1cccc2c3ccc4c(c3n(C)c12)C(=O)C=CC4=O
inactive: SNB-75 > 100 µM | NCI-H226 > 100 µM | HCC 2998 > 100 µM | SF-539 > 100 µM | CAKI-1 > 100 µM | M19-MEL > 100 µM | Malme-3M > 100 µM | SK-MEL-28 > 100 µM | SK-OV-3 > 100 µM | 786-0 > 100 µM | DMS-114 41.1 µM | MOLT-4 35.9 µM | OVCAR-8 89.1 µM
